ChEMBL document CHEMBL3763153, “Recent Update on Human Lactate Dehydrogenase Enzyme 5 (hLDH5) Inhibitors: A Promising Approach for Cancer Chemotherapy” (J Med Chem, 2016)
pIC50, pKi: −log10 of the molar value.

Assays:
[1] = molecular target: T1, L-lactate dehydrogenase A chain (Homo sapiens, UniProt P00338)
Description: Competitive inhibition of human LDH5 in presence of NADH

[2] = molecular target: L-lactate dehydrogenase B chain (Homo sapiens, UniProt P07195)
Description: Competitive inhibition of human LDH1 in presence of NADH

[3] = molecular target: T1, L-lactate dehydrogenase A chain; assay: Competitive inhibition of human LDH5 incubated for 15 mins in presence of NADH by fluorescence analysis

Sequence of L-lactate dehydrogenase B chain (P07195 whole entry): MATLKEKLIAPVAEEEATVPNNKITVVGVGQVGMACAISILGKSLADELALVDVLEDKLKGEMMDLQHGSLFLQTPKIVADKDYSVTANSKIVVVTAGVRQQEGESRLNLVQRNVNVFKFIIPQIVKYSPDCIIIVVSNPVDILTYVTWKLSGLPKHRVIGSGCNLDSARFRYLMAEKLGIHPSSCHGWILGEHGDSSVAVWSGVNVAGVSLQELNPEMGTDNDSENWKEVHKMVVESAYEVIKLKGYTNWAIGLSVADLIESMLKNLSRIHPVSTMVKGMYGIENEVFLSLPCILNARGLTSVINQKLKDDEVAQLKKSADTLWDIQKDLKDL

Row | Structure (SMILES) | pKi [1] | pKi [2] | other results
1 | Cc1cc2c(C(C)C)c(O)c(O)c(C=O)c2c(O)c1-c1c(C)cc2c(C(C)C)c(O)c(O)c(C=O)c2c1O [GOSSYPOL] | 5.72 |  | 
2 | NC(=O)C(=O)O [OXAMATE] |  | 4.03 | 
3 | CCCCC(=O)Oc1c(-c2c(C)cc3c(C(C)C)c(O)c(O)c(C#N)c3c2OC(=O)CCCC)c(C)cc2c(C(C)C)c(O)c(O)c(C#N)c12 | 5.04 |  | 
4 | O=C(O)CCCCn1cc(CCCCn2cc(C3=C(c4c[nH]c5ccccc45)C(=O)NC3=O)c3ccccc32)nn1 |  |  | pIC50 [1]: 4.44
5 | Cc1cccc(-c2cc3c(C(=O)O)c(O)c(O)c(C(C)C)c3cc2C)c1 | 6.70 |  | 
6 | Cc1cc2c(C(C)C)c(O)c(O)c3c2c(c1-c1c(C)cc2c(C(C)C)c(O)c(O)c4c2c1OC4=N)OC3=N | 5.60 | 4.04 | 
7 | CC(=O)Oc1c(-c2c(C)cc3c(C(C)C)c(O)c(O)c(C#N)c3c2OC(C)=O)c(C)cc2c(C(C)C)c(O)c(O)c(C#N)c12 | 5.70 |  | 
8 | O=C(O)CCCc1ccc(-n2cc(CCCn3cc(C4=C(c5c[nH]c6ccccc56)C(=O)NC4=O)c4ccccc43)nn2)cc1 |  |  | pIC50 [1]: 4.83
9 | O=C(O)c1cc2c(C(F)(F)F)cc(-c3ccccc3)cc2n1O[C@@H]1O[C@H](CO)[C@@H](O)[C@H](O)[C@H]1O |  |  | pKi [3]: 4.71
10 | Cc1cc2c(C(C)C)c(O)c(O)c(C(=O)O)c2cc1-c1ccc2c(C(C)C)c(O)c(O)c(C(=O)O)c2c1 | 5.89 | 6.15 | 
11 | Cc1cc2c(C(C)C)c(O)c(O)c(C(=O)O)c2cc1Cc1ccccc1 | 6.70 |  | 
12 | CCCc1c(O)c(O)c(C(=O)O)c2ccc(C)cc12 | 6.00 |  | 
13 | Cc1cc2c(C(C)C)c(O)c(O)c3c2c(c1-c1c(C)cc2c(C(C)C)c(O)c(O)c4c2c1OC4=O)OC3=O | 6.22 | 6.40 | 

Continued, in another order:

Row | pKi [1] | pKi [2] | Structure (SMILES) | other results
14 | 5.52 | < 3.90 | Cc1ccccc1-c1cc2c(C(=O)O)c(O)c(O)c(C(C)C)c2cc1C | 
15 | 6.00 | 5.10 | Cc1cc2c(C(C)C)c(O)c(O)c(C(=O)O)c2cc1Cc1ccc(Cl)cc1 | 
16 | 7.52 | 5.10 | Cc1ccc(-c2cc3c(C(=O)O)c(O)c(O)c(C(C)C)c3cc2C)cc1 | 
